Data: patent US11731939B1, “Indole-based chalcone compounds as antibacterial agents” (KING FAISAL UNIVERSITY, priority 2023, dated 2023)
In brackets after ≈: the same amount, converted by molar mass. Where two headings read alike, the source gives them in different places.

Columns and labels:
[1] = system: Escherichia coli MTCC 443; test: Antibacterial activity, dilution susceptibility test (CLSI M07-A10); type: cell-based; conditions: MTCC443
[2] = system: Mycobacterium tuberculosis H37Rv strain; test: Anti-tubercular properties, alamar blue microplate MIC; type: cell-based; conditions: 168 h, M. tuberculosis H37Rv, seven days at 37° C., read-out: anti-mycobacterial activity (MIC)
[3] = system: Pseudomonas aeruginosa MTCC 741; test: Antibacterial activity, dilution susceptibility test (CLSI M07-A10); type: cell-based; conditions: MTCC741
[4] = system: Bacillus subtilis MTCC 441; test: as above; type: cell-based; conditions: MTCC441
[5] = system: Staphylococcus epidermidis; test: as above; type: cell-based
[6] = molecular target: T1, DNA gyrase from E. coli (Escherichia coli, UniProt P0AES4+P0AES6); test: Inhibitory activity on E. coli DNA gyrase (Inspiralis assay); type: biochemical
T1 construct: purchased Inspiralis
T1 sequence (P0AES4 whole entry, one chain of several): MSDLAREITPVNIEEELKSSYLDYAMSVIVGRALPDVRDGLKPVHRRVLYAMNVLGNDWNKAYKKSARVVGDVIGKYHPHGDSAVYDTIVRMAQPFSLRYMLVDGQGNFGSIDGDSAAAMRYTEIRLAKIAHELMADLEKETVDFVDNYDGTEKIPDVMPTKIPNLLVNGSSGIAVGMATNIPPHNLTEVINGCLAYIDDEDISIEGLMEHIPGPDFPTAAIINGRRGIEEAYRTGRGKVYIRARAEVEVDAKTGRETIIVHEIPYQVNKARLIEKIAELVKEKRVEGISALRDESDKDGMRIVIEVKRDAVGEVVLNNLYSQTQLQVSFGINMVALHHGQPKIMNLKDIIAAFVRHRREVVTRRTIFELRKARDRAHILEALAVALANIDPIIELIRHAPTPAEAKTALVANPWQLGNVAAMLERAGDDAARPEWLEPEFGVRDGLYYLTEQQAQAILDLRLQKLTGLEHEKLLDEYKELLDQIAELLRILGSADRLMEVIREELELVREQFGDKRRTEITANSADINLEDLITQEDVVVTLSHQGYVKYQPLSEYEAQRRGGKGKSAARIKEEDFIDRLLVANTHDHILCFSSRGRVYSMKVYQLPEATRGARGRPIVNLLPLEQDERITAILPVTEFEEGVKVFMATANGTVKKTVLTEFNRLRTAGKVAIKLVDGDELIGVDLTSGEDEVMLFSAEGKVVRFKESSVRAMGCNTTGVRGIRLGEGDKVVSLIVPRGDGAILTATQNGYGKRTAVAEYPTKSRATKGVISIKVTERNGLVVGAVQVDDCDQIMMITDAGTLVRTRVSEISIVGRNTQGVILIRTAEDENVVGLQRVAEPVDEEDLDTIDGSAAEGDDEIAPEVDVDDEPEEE
Procedure: Inhibitory potencies were investigated utilizing the Inspiralis assay on streptavidin-coated 96-well microtiter plates. First, the plates were rehydrated with buffer (20 mM Tris-HCl with pH 7.6, 0.01% w/v BSA, 0.05% v/v Tween 20, 137 mM NaCl) and the biotinylated oligonucleotide was then immobilized. After washing off the unbound oligonucleotide, the enzyme test was performed. […] Reaction solutions were incubated at 37° C. for 30 min. After that, the TF buffer (50 mM NaOAc with pH 5.0, 50 mM NaCl and 50 mM MgCl2) was added to terminate the enzymatic reaction. After additional incubation for 30 min at rt, during which biotinoligonucleotide-plasmid triplex was formed, the unbound plasmid was washed off using TF buffer and SybrGOLD in T10 buffer (10 mM Tris HCl with pH 8.0 and 1 mM EDTA) was added. The fluorescence was measured with a microplate reader (BioTek Synergy H4, excitation: 485 nm, emission: 535 nm). Initial screening was done at 100 or 10 μM concentration of inhibitors. […] GraphPad Prism software was used to calculate the IC50 values. The result is given as the average value of three independent measurements.

[7] = system: Klebsiella pneumonia MTCC 618; test: Antibacterial activity, dilution susceptibility test (CLSI M07-A10); type: cell-based; conditions: Klebsiella pneumoniae, MTCC618
[8] = system: Enterococcus faecium ATCC 51559 (VRE resistant); test: as above; type: cell-based
[9] = system: Enterococcus faecium ATCC 35667; test: as above; type: cell-based; conditions: ATCC35667
[10] = system: Staphylococcus aureus ATCC BAA-1556 (MERSA resistant); test: as above; type: cell-based; conditions: ATCCBAA1556
[11] = system: Staphylococcus aureus ATCC 29213; test: as above; type: cell-based; conditions: ATCC29213

SMILES	MIC ([1]; Escherichia coli MTCC 443, read-out: MIC)	MIC [2]	MIC ([3]; Pseudomonas aeruginosa MTCC 741, read-out: MIC)	MIC ([4]; Bacillus subtilis MTCC 441, read-out: MIC)	MIC ([5]; read-out: MIC)	IC50 [6]	MIC ([7]; Klebsiella pneumonia MTCC 618, read-out: MIC)	MIC ([8]; Enterococcus faecium ATCC 51559 (VRE resistant), read-out: MIC)	MIC ([9]; Enterococcus faecium ATCC 35667, read-out: MIC)	MIC [10]	MIC [11]	MIC ([1]; Escherichia coli)	MIC ([3]; Pseudomonas aeruginosa)	MIC ([4]; Bacillus subtilis)	MIC [5]	MIC [7]	MIC ([8]; Enterococcus faecium)	MIC ([9]; Enterococcus faecium)
CNc1cc(F)cc2c(/C=C/C(=O)c3ccc(C(=O)O)cc3)c[nH]c12 [Compound 1, (E)-4-(3-(5-fluoro-7-(methylamino)-1H-indol-3-yl)acryloyl)benzoic acid]	0.75 µg/mL (≈ 2.22 µM)	2 µg/mL (≈ 5.91 µM)	0.5 µg/mL (≈ 1.48 µM)	0.25 µg/mL (≈ 0.739 µM)	1 µg/mL (≈ 2.96 µM)	0.15 µM	0.75 µg/mL (≈ 2.22 µM)	0.5 µg/mL (≈ 1.48 µM)	1 µg/mL (≈ 2.96 µM)	0.75 µg/mL (≈ 2.22 µM)	0.75 µg/mL (≈ 2.22 µM)							
CN[C@H](CC(C)C)C(=O)N[C@H]1C(=O)N[C@@H](CC(N)=O)C(=O)N[C@H]2C(=O)N[C@H]3C(=O)N[C@H](C(=O)N[C@H](C(=O)O)c4cc(O)cc(O)c4-c4cc3ccc4O)[C@H](O)c3ccc(c(Cl)c3)Oc3cc2cc(c3O[C@@H]2O[C@H](CO)[C@@H](O)[C@H](O)[C@H]2O[C@H]2C[C@](C)(N)[C@H](O)[C@H](C)O2)Oc2ccc(cc2Cl)[C@H]1O [Vancomycin, reference compound]												> 128 µg/mL	> 128 µg/mL	0.5 µg/mL (≈ 0.345 µM)	1 µg/mL (≈ 0.69 µM)	> 128 µg/mL	> 128 µg/mL	0.5 µg/mL (≈ 0.345 µM)
